These results are taken from patent publication US20180201694A1, “CHITIN DERIVATIVES, METHOD FOR PRODUCTION AND USES THEREOF” (JAWAHARLAL NEHRU CENTRE FOR ADVANCED SCIENTIFIC RESEARCH …, priority 2013, published 2018).

What all share (assay type): cell-based
The subject of one assay is E. coli. The assay is described as follows: In-vitro antibacterial activity (MIC/MBC), coated 96-well plate. Particulars: 10^5 CFU/mL, 37° C., 24 h, composite as (1c+AgPTS). On the procedure:
(§1) Chitin derivatives were first dissolved in methanol (50 mg/mL) and the solutions were serially diluted. 20 μL of the solutions of different concentrations were added into wells of a 96-well plate. The solution was first air-dried and finally dried in vacuum oven to make a film onto the flat-bottom surface of wells of 96-well plate. Each concentration was applied in triplicate for all the samples to study the antibacterial activity. In order to make films on surfaces such as microscopic glass slide, methanolic solutions of polymer (350 μL) were spin coated onto the glass surface by using a spin coater. […] To prepare thin films, mixed solutions (350 μL) obtained from the solutions of these medically relevant polymers in chloroform and methanolic solution of the chitin derivatives (CHCl3: MeOH=9:1) were spin coated onto the glass surface and dried in air. For the biodegradation study, thin films of the chitin derivatives were prepared on microscopic cover glass.
(§2) To determine the antibacterial activity of the synthesized polymers, 200 μL of 10^5 CFU/mL of bacteria were added to the wells of 96-well plate coated with the chitin derivatives with different amounts. […] The data was then subjected to sigmoidal fitting.

Assay [1] concerns S. aureus. Described as above. The conditions noted are these: 10^5 CFU/mL, 37° C., 24 h, composite as (1c+AgPTS). On the procedure: as §1, §2
Assay [2] has as its system S. aureus. Nature of the assay: Antibacterial kinetics. The conditions noted are these: coated at 6×MIC; followed upto 360 min.
Description: A quantity of 200 μL of a solution containing approximately 4.9×10^5 CFU/mL of S. aureus in nutrient broth and 5.1×10^5 CFU/mL in Luria-Bertani (LB) broth were added, and the plates were kept in an incubated shaker at 37° C. The initial time of addition of the bacteria to the wells was taken as zero, and 10 μL aliquots were withdrawn from each of the wells at set time intervals. These aliquots were added immediately to 90 μL of 0.9% saline. These solutions were further diluted by a factor of 10, and 20 μL of all the dilutions was plated on nutrient or LB agar plates immediately. The plates were incubated at 37° C. for 24 h; and bacterial colonies were counted. A plot of CFU (Log10 CFU/mL) versus time was then plotted.
Antibacterial kinetics assay was performed similarly as mentioned earlier.

The term MIC denotes the lowest concentration that inhibits growth of the organism. Read a low MIC as greater potency. Regarding `Cc1ccc(S(=O)(=O)[O-])cc1.[Ag+]` [AgPTS, silver para-toluene sulfonate], the MIC in the assay on E. coli came to 10 µg/mL; against S. aureus [1] it was 39 µg/mL. The “Time at which S. aureus was killed” value in the assay on S. aureus [2] is given as “bacteriostatic”.
